Source: patent publication US20140212381A1, “MACROCYCLES” (Scynexis, Inc., priority 2012, published 2014)
Values after ≈ are worked out from the molar mass of the structure shown. Like-named read-outs stand apart in the source and are kept apart here. Numbered stars: 1 amine (or outer) side, 2 acyl side, 3 side chain; on linkers, the order of the positions; unused ones are H or OH. Square brackets hold non-standard residues; d marks the D form. Peptide text beside a SMILES is read from it. ξ: configuration not given here. X5 = CCN(CC)C1(CS[C@H](C(=O)[*:2])N(C)[*:1])CC1; X1 = CN(C)C1(CS[C@H](C(=O)[*:2])N(C)[*:1])CCC1; X6 = CCN(C)C1(CS[C@H](C(=O)[*:2])N(C)[*:1])CC1; ξNMeBmt = C/C=C/C[C@@H](C)[C@@H](O)C(NC)C(=O)O; X2 = CC(C)[C@H](C(=O)[*:2])N(Cc1ccccc1)[*:1]; NMeLeu(4-OH) = CN[C@@H](CC(C)(C)O)C(=O)O; NMeL = CN[C@@H](CC(C)C)C(=O)O; dNMeL = CN[C@H](CC(C)C)C(=O)O; dNMeV = CN[C@@H](C(=O)O)C(C)C; dAbu = CC[C@@H](N)C(=O)O

Key:
[1] = system: HCV RNA replicon, Genotype 1b; assay: HCV replicon assay, 1b replicon (LUC); details: Hepatitis C virus, GETYPE1B, in Homo sapiens, 72 h, read-out: mean EC50, Genotype 1b
Source text: Compounds were examined in the human hepatoma cell a HCV RNA replicon containing a stable luciferase (LUC) reporter. The HCV RNA replicon ET contains the 5′ end of HCV (with the HCV Internal Ribosome Entry Site (IRES) and the first few amino acids of the HCV core protein) which drives the production of neomycin phosphotransferase (NeoR) fusion protein. A luciferase reported is incorporated into 1b replicon. The EMCV IRES element controls the translation of the HCV structural proteins NS3-NS5. The NS3 protein cleaves the HCV polyprotein to release the mature NS3, NS4A, NS4B, NS5A and NS5B proteins that are required for HCV replication. At the 3′ end of the replicon is the authentic 3′ NTR of HCV. The activity of the LUC reporter is directly proportional to HCV replication levels and positive-control antiviral compounds produce a reproducible antiviral response using the LUC endpoint.
The compounds were dissolved in DMSO at six half-log concentrations. HCV replicon cells were plated out into 96 well plates dedicated for the analysis of cell numbers (cytotoxicity) or antiviral activity and the next day the compounds were added to the appropriate wells. The cells were processed 72 hours later when the cells were still subconfluent. […] Compound EC50 and EC90 values were derived from HCV RNA levels assessed as HCV RNA replicon derived LUC activity. Cytotoxicity was expressed as IC50 and IC90, the concentration of compound that inhibited cell viability by 50% and 90%, respectively. Compound IC50 and IC90 values were calculated using a colorimetric assay as an indication of cell numbers and cytotoxicity. The activity of the LUC reporter is directly proportional to HCV RNA levels in the human cell line. The HCV-replicon assay was validated in parallel experiments using interferon-alpha-2b as a control. The compounds were tested in 1a replicon, (qRT_PCR/TaqMan), 1b replicon (LUC) and 2a replicon (qRT-PCR/TaqMan).

[2] = system: IL-2 production by stimulated T Cells (Jurkat cells); assay: Inhibition of IL-2 production in stimulated Jurkat cells; format: cell-based; details: Homo sapiens, read-out: IL-2 inhibition IC50
Procedure: Compounds of formula (I) were tested for their inhibition of IL-2 production by stimulated T Cells, using Jurkat cells with anti-CD3 and anti-CD28 co-stimulation. […] Cyclosporine A (control) was also run at a 0.5-Log 9-point titration. starting at 500 ng/mL. All compounds to be tested were dissolved in dimethyl sulfoxide. Cytotoxicity was evaluated with parallel Alamar Blue plates. Jurkat cells were seeded at […] per well in 200 μL growth media in a 96-well plate. Cells were cultured in complete RPMI medium supplemented with 10% fetal bovine serum with one hour incubation at 37° C. with 5% carbon dioxide
PMA and PHA were diluted in complete media to a final concentration of 1 ng/mL and 5 μg/mL respectively. The diluted compounds were mixed 1:1 and 25 μL of the mixture was added per well. The plates were incubated overnight at 37° C. in 5% CO2.
The following day one hundred microliters of cell culture supernatant were transferred from each well to a non-sterile V-bottom plate and stored plate at −80° C. prior to analysis. Determination of IL-2 concentrations in the supernatant was performed using the Pierce Human IL-2 Colorimetric ELISA kit as per the manufacturer's directions (Pierce, #EH2IL25). Cell culture supernatants were diluted with an equal volume of complete RPMI (25 μL sample+25 μL RPMI per well) prior to testing in order to remain in linear range of the assay.
Duplicate wells containing cells in the absence of PMA/PHA and test drug (background) and duplicate wells containing cells stimulated with PMA/PHA in the absence of test drug (100% production of IL-2) were included as controls. Activated cells treated with DMSO were used to normalize IL-2 values. IL-2 standard curves were generated using a 4-parameter curve fit in SoftMax Pro software from Molecular Devices.
Two independent assays were performed to evaluate the effect of cyclosporine A and representative compounds on IL-2 production in PMA/PHA stimulated Jurkat cells (mean values were calculated).

Cyclophilin B = Cyclophilin B (Homo sapiens, UniProt P23284); assay: Cyclophilin binding, competitive ELISA; details: human recombinant cyclophilin
Sequence of Cyclophilin B (P23284 34-216): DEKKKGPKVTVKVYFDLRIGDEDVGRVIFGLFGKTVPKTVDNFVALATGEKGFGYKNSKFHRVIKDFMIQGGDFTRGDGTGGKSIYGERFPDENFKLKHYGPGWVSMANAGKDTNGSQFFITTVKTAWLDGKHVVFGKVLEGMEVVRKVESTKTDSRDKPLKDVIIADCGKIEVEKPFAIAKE
Source text: Plates were washed as described above. […] Plates were washed as described above.

[3] = system: Influenza A H3N2 (A/HK/8/68); assay: Anti-influenza virus cytoprotection assay in MDCK cells; format: cell-based; details: read-out: levels of inhibition
[4] = system: Influenza A H1N1 (A/CA/05/09); assay: as above; format: cell-based; details: read-out: levels of inhibition
Influenza B (B/Allen/45) = assay: as above; format: cell-based; details: read-out: levels of inhibition
[5] = PMA/PHA stimulated Jurkat cells, mean of two independent assays

| SMILES | EC50 [1] | IC50 [2, 5] | IC50 (Cyclophilin B) | inhibition at 10 µM [3] | inhibition at 10 µM [4] | IC50 ([2]; Jurkat) | inhibition at 10 µM (Influenza B (B/Allen/45)) |
| --- | --- | --- | --- | --- | --- | --- | --- |
| C/C=C/C[C@@H](C)[C@@H](O)C1C(=O)N[C@H](CC)C(=O)N(C)[C@H](SCC2(N(CC)CC)CC2)C(=O)N(C)[C@@H](CC(C)(C)O)C(=O)N[C@H](C(C)C)C(=O)N(C)[C@H](CC(C)C)C(=O)N[C@H](C)C(=O)N[C@@H](C)C(=O)N(C)[C@H](CC(C)C)C(=O)N(C)[C@H](CC(C)C)C(=O)N(C)[C@H](C(C)C)C(=O)N1C (some centres unmarked) [Compound D] (cyclo(A[dNMeL][dNMeL][dNMeV][ξNMeBmt][dAbu][X5][NMeLeu(4-OH)][dV][dNMeL][dA])) | 70 nM | 13.4 µg/mL (≈ 9.74 µM) | 64 nM | – | – | – | – |
| C/C=C/C[C@@H](C)[C@@H](O)C1C(=O)N[C@H](CC)C(=O)N(C)[C@H](SCC2(N(C)CC)CC2)C(=O)N(C)[C@@H](CC(C)(C)O)C(=O)N[C@H](C(C)C)C(=O)N(C)[C@H](CC(C)C)C(=O)N[C@H](C)C(=O)N[C@@H](C)C(=O)N(C)[C@H](CC(C)C)C(=O)N(C)[C@H](CC(C)C)C(=O)N(C)[C@H](C(C)C)C(=O)N1C (some centres unmarked) [Compound E] (cyclo(A[dNMeL][dNMeL][dNMeV][ξNMeBmt][dAbu][X6][NMeLeu(4-OH)][dV][dNMeL][dA])) | 20 nM | > 13.6 µg/mL | – | – | – | – | – |
| C/C=C/C[C@@H](C)[C@@H](O)C1C(=O)N[C@H](CC)C(=O)N(C)[C@H](SCC2(N(C)C)CCC2)C(=O)N(C)[C@@H](CC(C)C)C(=O)N(Cc2ccccc2)[C@H](C(C)C)C(=O)N(C)[C@H](CC(C)C)C(=O)N[C@H](C)C(=O)N[C@@H](C)C(=O)N(C)[C@H](CC(C)C)C(=O)N(C)[C@H](CC(C)C)C(=O)N(C)[C@H](C(C)C)C(=O)N1C (some centres unmarked) [Compound F] (cyclo(A[dNMeL][dNMeL][dNMeV][ξNMeBmt][dAbu][X1][NMeL][X2][dNMeL][dA])) | 520 nM | – | 43 nM | 68% | 98% | 0.452 µg/mL (≈ 0.315 µM) | 15% |
